Laboratory results from patent publication US20260070887A1 (Shenzhen Zhongge Biological Technology Co., Ltd., priority 2022, published 2026).
Read-outs that look alike come from different tables or passages of the source.

How the values were obtained:
OVCAR-3 cells = test: OVCAR-3 cell proliferation (Cell Titer-Glo, 10 days); format: cell-based, human
How it was run: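 400 cells per well were seeded onto pre-dispensed compound (final 0.12 nM to 10 μM) in RPMI-1640 with 20% FBS and insulin, then co-cultured for 10 days. Viability was read as Cell Titer-Glo luminescence, inhibition was taken against 0.1% DMSO control, and IC50 came from nonlinear concentration-inhibition regression.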

HCT116 cells = test: HCT116 cell anti-proliferation assay; format: cell-based; details: 6 days, Cell Titer-Glo
Procedure: HCT116 (ATCC, CCL-247) cells were cultured in McCoy's 5a complete medium (Gibco, 12330-031) containing 10% fetal bovine serum (Gibco, 10099-141C), 100 U penicillin and 100 μg/mL streptomycin (Gibco, 15140-122). The Promega kit Cell Titer-Glo (Promega: G7572) was used in this method for test.
HCT116 cells were cultured in T75 cell flasks (Corning, 430641) and the cells were placed in a 37° C., 5% CO2 incubator. Cells were passaged when reaching a cell density of 70%-80%, approximately twice per week. To perform the experiment, the test compounds were dissolved in DMSO to prepare a 10 mM stock solution, and the test compounds were added to the 384-well cell test plate (Corning, 3765) at the predetermined concentration (19.5 nM-[…]) using ECHO. […] cells were digested and 150 cells (60 μL medium) were seeded per well in the test plate. The 384-well plate was then centrifuged at 500 rpm for 1 minute, and then placed in a 37° C., 5% CO2 incubator for 6 days of cultivation. Six days later, the cell culture plate was equilibrated for 10 minutes at room temperature, 25 μL of Cell Titer-Glo was added to each well, and the mixture was shaken and mixed well and let stand for 5 minutes. The luminescence values for samples in various wells were read using a microplate reader in Luminescence mode.
The percentage of inhibition of cell proliferation by the test compound at each concentration was calculated by comparing with the values of the control group (0.2% DMSO). The IC50 values of the compounds were obtained by concentration-inhibition rate nonlinear regression analysis of the test compounds using GraphPad Prism 9.

PK study in ICR mice = format: in vivo, mouse; details: plasma, route and dose not given
How it was run: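 Fasted ICR mice (3/group) dosed intravenously or by oral gavage; plasma sampled up to 24 h. Plasma levels measured by LC-MS/MS after protein precipitation. T½, AUC0-t, CL, Vss and F derived by noncompartmental analysis.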

[1] = both sexes, mouse, read-out: AUC
[2] = both sexes, mouse, read-out: Cmax

Row | Compound | IC50 (OVCAR-3 cells) [nM] | IC50 (HCT116 cells) [nM] | IC50 (HCT116 cells; Homo sapiens, HCT-116, 144 h) [nM] | AUC (PK study in ICR mice; [1]) [ng·h/mL] | Cmax (PK study in ICR mice; [2]) [ng/mL] | IC50 (OVCAR-3 cells; Homo sapiens, OVCAR-3, 240 h) [nM] | AUC (PK study in ICR mice) [ng·h/mL] | Cmax (PK study in ICR mice) [ng/mL]
1 | CC1Cn2c(cc3c(NC(=O)c4ccc(NS(=O)(=O)CCO)cc4N4CCC5(CC4)CC5)cccc32)C(C)O1 (single isomer, unassigned) [Compound 312-P2A, N-(1,3-dimethyl-3,4-dihydro-1H-[1,4]oxazino[4,3-a]indol-9-yl)-4-((2-hydroxyethyl)sulfonamido)-2-(6-azaspiro[2.5]oct-6-yl)benzamide] | ≤ 50 | 6700 |  |  |  |  |  | 
2 | CC1Cn2c(cc3c(NC(=O)c4ccc(NS(=O)(=O)CCO)cc4N4CCC5(CC4)CC5)cccc32)C(C)O1 (single isomer, unassigned) [Compound 312-P3, N-(1,3-dimethyl-3,4-dihydro-1H-[1,4]oxazino[4,3-a]indol-9-yl)-4-((2-hydroxyethyl)sulfonamido)-2-(6-azaspiro[2.5]oct-6-yl)benzamide] | ≤ 50 |  | > 10000 | 32400 | 2980 |  |  | 
3 | COC1c2cc3c(NC(=O)c4ccc(NS(=O)(=O)CCO)cc4N4CCC5(CC4)CC5)cccc3n2CCC1(F)F (single isomer, unassigned) [Example 340-P2] | ≤ 50 | 8500 |  |  |  |  |  | 
4 | CC1(C)Cn2c(nc3c(NC(=O)c4ccc(NS(=O)(=O)CCO)cc4N4CCC5(CC4)CC5)cccc32)CO1 [Compound 391, N-(3,3-dimethyl-3,4-dihydro-1H-benzo[4,5]imidazo[2,1-c][1,4]oxazin-9-yl)-4-((2-hydroxyethyl)sulfonamido)-2-(6-azaspiro[2.5]octan-6-yl)benzamide] |  |  | > 10000 | 38000 | 4370 | ≤ 50 |  | 
5 | CC1(C)Cn2c(cc3c(NC(=O)c4ccc(NS(=O)(=O)CCO)cc4N4CCC5(CC4)CC5)ccc(C#N)c32)CO1 [Compound 392, N-(6-cyano-3,3-dimethyl-3,4-dihydro-1H-[1,4]oxazino[4,3-a]indol-9-yl)-4-((2-hydroxyethyl)sulfonamido)-2-(6-azaspiro[2.5]oct-6-yl)benzamide] |  |  | > 10000 | 50800 | 5080 | ≤ 50 |  | 
6 | CC1(C)Cn2c(cc3c(NC(=O)c4ccc(NS(=O)(=O)CCO)cc4N4CCC(=C(F)F)CC4)ccc(C#N)c32)CO1 [Compound 393, N-(6-cyano-3,3-dimethyl-3,4-dihydro-1H-[1,4]oxazino[4,3-a]indol-9-yl)-2-(4-(difluoromethylene)piperidin-1-yl)-4-((2-hydroxyethyl)sulfonamido)benzamide] |  |  | > 10000 | 22300 | 3840 | 50 to 500 |  | 
7 | CC1(C)Cn2c(nc3c(NC(=O)c4ccc(NS(=O)(=O)CCO)cc4N4CCC(=C(F)F)CC4)cccc32)CO1 [Compound 394, 2-(4-(difluoromethylene)piperidin-1-yl)-N-(3,3-dimethyl-3,4-dihydro-1H-benzo[4,5]imidazo[2,1-c][1,4]oxazin-9-yl)-4-((2-hydroxyethyl)sulfonamido)benzamide] |  |  | > 10000 | 47800 | 4220 | ≤ 50 |  | 
8 | CC1(C)OCCn2c1cc1c(NC(=O)c3ccc(NS(=O)(=O)CCO)cc3N3CCC(=C(F)F)CC3)cccc12 [Compound 395, 2-(4-(difluoromethylene)piperidin-1-yl)-N-(1,1-dimethyl-3,4-dihydro-1H-[1,4]oxazino[4,3-a]indol-9-yl)-4-((2-hydroxyethyl)sulfonamido)benzamide] |  |  | > 10000 |  |  | 50 to 500 |  | 
9 | O=C(Nc1cccc2c1cc1n2CC2CCC1O2)c1ccc(NS(=O)(=O)CCO)cc1N1CCC(=C(F)F)CC1 (stereo not drawn) [Compound 398, 2-(4-(difluoromethylene)piperidin-1-yl)-4-((2-hydroxyethyl)sulfonamido)-N-(7,8,9,10-tetrahydro-6H-7,10-epoxyazeto[1,2-a]indol-1-yl)benzamide] | ≤ 50 | > 10000 |  |  |  |  | 6992 | 1410
10 | COc1ccc(NC(=O)c2ccc(NS(=O)(=O)CCO)cc2N2CCC(=C(F)F)CC2)c2cc3n(c12)CCOC3 [Compound 405, 2-(4-(difluoromethylene)piperidin-1-yl)-4-((2-hydroxyethyl)sulfonamido)-N-(6-methoxy-3,4-dihydro-1H-[1,4]oxazinyl[4,3-a]indol-9-yl)benzamide] | ≤ 50 | > 10000 |  |  |  |  | 27572 | 4205
11 | Nc1cc(NS(=O)(=O)CCO)cc(N2CCC3(CC2)CC3)c1C(=O)Nc1cccc(N2CCC(F)(F)CC2)c1 [Example 1, 2-amino-N-(3-(4,4-difluoropiperidin-1-yl)phenyl)-4-((2-hydroxyethyl)sulfonamide)-6-(6-azaspiro[2.5]octan-6-yl)benzamide] | ≤ 50 |  |  |  |  |  |  | 
12 | CNc1cc(NS(=O)(=O)CCO)cc(N2CCC3(CC2)CC3)c1C(=O)Nc1cc(C)nc(N2CCC(F)(F)CC2)n1 [Example 4, N-(2-(4,4-difluoropiperidin-1-yl)-6-methylpyrimidin-4-yl)-4-(2-hydroxyethylsulfonamide)-2-methylamino-6-(6-azaspiro[2.5]octan-6-yl)benzamide] | ≤ 50 | 2600 |  |  |  |  |  | 
13 | O=C(Nc1cccc2c1cc1n2CCOC1)c1ccc(NS(=O)(=O)CCO)cc1N1CCC2(CC1)CC2 [Example 235, N-(3,4-dihydro-1H-[1, 4]oxazino[4,3-a]indol-9-yl)-4-(2-hydroxyethylsulfonamido)-2-(6-azaspiro[2.5]octan-6-yl)benzamide] |  |  | > 10000 | 5980 | 2990 | ≤ 50 |  | 
14 | O=C(Nc1ccc(F)c2c1nc1n2CCOC1)c1ccc(NS(=O)(=O)CCO)cc1N1CCC2(CC1)CC2 [Example 308, N-(6-fluoro-3,4-dihydro-1H-benzo[4,5]imidazo[2,1-c][1,4]oxazin-9-yl)-4-((2-hydroxyethyl)sulfonamido)-2-(6-azaspiro[2.5]octan-6-yl)benzamide] |  |  | > 10000 | 5650 | 1100 | ≤ 50 |  | 
15 | N#Cc1ccc(NC(=O)c2ccc(NS(=O)(=O)CCO)cc2N2CCC3(CC2)CC3)c2cc3n(c12)CCOC3 [Example 310, N-(6-cyano-3,4-dihydro-1H-[1,4]oxazino[4,3-a]indol-9-yl)-4-((2-hydroxyethyl)sulfonamido)-2-(6-azaspiro[2.5]oct-6-yl)benzamide] |  |  | 9000 | 12600 | 3030 | ≤ 50 |  | 
16 | O=C(Nc1cccc2c1cc1n2CCOC1)c1ccc(NS(=O)(=O)CCO)cc1N1CCC(=C(F)F)CC1 [Example 319, 2-(4-difluoromethylene)piperidin-1-yl-N-(3,4-dihydro-1H-[1,4]oxazino[4,3-a]indol-9-yl)-4-((2-hydroxyethyl)sulfonamide) benzamide] | ≤ 50 | > 10000 |  |  |  |  | 16534 | 3717
17 | N#Cc1ccc(NC(=O)c2ccc(NS(=O)(=O)CCO)cc2N2CCC(=C(F)F)CC2)c2cc3n(c12)CCOC3 [Example 364, N-(6-cyano-3,4-dihydro-1H-[1,4]oxazino[4,3-a]indol-9-yl)-2-(4-(difluoromethylene)piperidin-1-yl)-4-((2-hydroxyethyl)sulfonamido)benzamide] |  |  | 8200 |  |  | 50 to 500 |  | 
18 | CC1(O)CCCn2c1cc1c(NC(=O)c3ccc(NS(=O)(=O)CCO)cc3N3CCC4(CC3)CC4)cccc12 (stereo not drawn) [Example 372] | ≤ 50 | > 10000 |  |  |  |  |  | 
19 | CC1(C)Cn2c(cc3c(NC(=O)c4ccc(NS(=O)(=O)CCO)cc4N4CCC5(CC4)CC5)ccc(OC(F)F)c32)CO1 [Example 523] | ≤ 50 |  |  |  |  |  | 99384 | 7088
